In PMC9071130, “Functional analysis of LFRFamide signaling in Pacific abalone, Haliotis discus hannai” (PLoS ONE, 2022):

Columns and labels:
Hdh-sNPFR [1] = test: Internalization of HA-tagged Hdh-sNPFR in HEK293 cells (immunocytochemistry, confocal microscopy); format: cell-based, Haliotis discus hannai; conditions: HEK293 cells with HA-tagged Hdh-sNPFR; peptide 10^−6 M; 5 and 30 min
Experimental: To detect Hdh-sNPFR expression, HEK293 cells were seeded on poly-D-lysine hydrobromide (Sigma-Aldrich)-coated coverslips in 24-well plates. The Hdh-sNPFR expression plasmid was transfected into HEK293 cells as described above. At approximately 30 h post-transfection, the cells were treated with LFRFa peptides and NPF for 5 min and 30 min, respectively. The cells were fixed with 4% paraformaldehyde for 10 min, followed by treatment with 1% bovine serum albumin in phosphate-buffered saline with 0.1% Tween 20 (PBST) for 30 min at room temperature to block non-specific binding. The HEK293 cells were treated with a monoclonal HA primary antibody (1:5000 dilution; H9658, Sigma-Aldrich) in PBST at 4°C for 16 h. After washing with PBST three times for 10 min each, the cells were treated with a secondary antibody [anti-mouse IgG (H+L), F(ab’)2Fragment (AlexaFluor 488 Conjugate), 1:2000 dilution; Cell Signaling, Danvers, MA, USA] in PBST at room temperature for 1 h in a light-blocked chamber. After washing with PBST three times for 10 min each, the cells were mounted with a mounting medium including DAPI (Abcam, Cambridge, UK). The expression of Hdh-sNPFR was monitored with a confocal laser-scanning microscope (FV3000, Olympus, Tokyo, Japan).
Fig 7 Subcellular localization and internalization of Hdh-sNPFR. […]

Pacific abalone = conditions: injection of NPF peptide; earlier paper of the authors; cited from earlier work
From the text: Along with insect sNPFs, LFRFa peptides convert feeding motor programs from ingestive to egestive, depress feeding muscle contractions in Aplysia californica, and increase rectal contractions in Sepia officinalis.

Hdh-sNPFR [2] = test: CRE-Luc reporter activation in Hdh-sNPFR-transfected HEK293 cells; format: cell-based, Haliotis discus hannai; conditions: peptide 10^−6 M, 6 h, no forskolin, n = 3
Experimental: (§1) HEK293 cells were grown in monolayer culture in Dulbecco’s modified Eagle medium (Gibco, Loughborough, UK) with 10% fetal bovine serum (HyClone, GE Healthcare, Chicago, IL, USA) and 1% penicillin/streptomycin (Invitrogen, Carlsbad, CA, USA) at 37°C, 5% CO2. HEK293 cells were seeded in 24-well plates and the transfection was performed using a formulated polyethylenimine solution (Sigma-Aldrich, St. Louis, MO, USA) as previously described. […] The cells were harvested with a cell lysis buffer (Promega, Madison, WI, USA) and luciferase activities were assayed using a microplate luminometer (Berthold, Bad Wildbad, Germany) and normalized by β-galactosidase values detected on a microplate reader (Tecan, Männedorf, Switzerland) at 405 nm.
(§2) Fig 5 Effect of LFRFa peptides on luciferase reporter activities in Hdh-sNPFR-expressing HEK293 cells. […] Intracellular cAMP accumulation was measured by CRE-Luc reporter activities in Hdh-sNPFR- or maternal plasmid pcDNA3-transfected HEK293 cells. The relative activities were determined in response to 10^−5 M of FKN and 10^−6 M of peptide as indicated. […]

Hdh-sNPFR [3] = test: SRE-Luc reporter activation in Hdh-sNPFR-transfected HEK293 cells; format: cell-based, Haliotis discus hannai; conditions: peptide 10^−6 M, 6 h, n = 3
Experimental: as §1, §2

QDAMLAPPDRPSEFRSPDQLRQYLKALNEYYAIVGRPRF-NH2 [NPF, Pacific abalone neuropeptide F, 39 amino acids, amidated, used as comparison peptide]
Internalization of Hdh-sNPFR from cell membrane to cytoplasm (Hdh-sNPFR [1]): did not undergo redistribution from the cell surface to the cytoplasm | Food consumption in Pacific abalone after NPF injection (Pacific abalone): increased food consumption | Activation of CRE-Luc reporter (Hdh-sNPFR [2]): did not activate | Activation of SRE-Luc reporter (Hdh-sNPFR [3]): did not activate
